Laboratory results published in patent US20220249525A1, “Fatty Acid Compounds for Prevention and Treatment of Neurodegenerative Disorders” (T OMEGA AS, priority 2019, published 2022).

Test system: HCC827 cells
Assay: Mitochondria respiration assay (OCR, extracellular flux) in HCC827 cells
Type: cell-based
Protocol: Non-small cell lung cancer cells, HCC827 (ATCC) were cultured in RPMI-1640 Glutamax medium (Sigma-Aldrich St. Louis, Mo., USA), under conventional culture conditions. Media was supplemented with 10% Fetal Bovine Serum (FBS), 1% glutamine and 1% streptomycin/penicillin (Sigma-Aldrich). HeLaNRF1/c4 reporter cells were cultured in Dulbecco's Modified Eagle's Medium (DMEM) supplemented with 10% FBS, 2 mM L-Glutamine, 100 u/ml penicillin/streptomycin (Sigma-Aldrich,). Incubation was done at 37° C. in 5% CO2.
Mitochondria function was analyzed by measuring oxygen consumption rate (OCR) by extracellular flux analysis in a Seahorse XFe96 instrument (Agilent Seahorse XF Technologies). The measurements were performed in DADA basic media without phenol red, supplemented with L-glutamine (2 mM), pyruvate (2 mM), and sodium chloride, NaCl (32 mM) (Sigma-Aldrich). Respiratory rates were measured following sequential additions of glucose (10 mM), oligomycin, carbonyl cyanide m-chlorophenyl hydrazine (CCCP) and a mixture of rotenone (1 μM) and antimycin A (1 μM). Before carrying out the measurements for each cell model, optimizations were done for; cell number, CCCP, and oligomycin concentrations. For the HCC 827 cell model optimal conditions were; 30,000 cells/well, 0.5 μM CCCP, and 3 μM Oligomycin; and in HeLaNRF1/c4 reporter cell model; 20,000 cells/well, 1 μM CCCP and 3 μM Oligomycin. The OCR measured initially (before any additions) represented the rate ‘basal respiration.’ The addition of ATP synthase inhibitor oligomycin provided oxygen consumption independent of ATP production (‘leak activity’). Maximal respiration (also referred to as ‘respiratory capacity’) was measured upon addition of the uncoupler CCCP. […] After the extracellular flux analysis the analysis plates were washed with Phosphate Buffered Saline (PBS) and frozen at −80° C. The BCA assay (Pierce BCA protein assay kit, Thermo Fisher Scientific, Waltham, Mass. USA) was employed to measure the protein content in the wells. To evaluate the effects of the different treatments, the respiratory rates from compound-treated wells were normalized to protein content, and calculated as percentage of the average respiratory rate of the DMSO-treated control wells. All treatments were performed with 6-8 replicate wells.

For `CCCCCCCCCCCCCCNCC(=O)O` [N-TTA, N-tetradecylglycine], which “leak respiration after oligomycin” value (100 μM TTA, 200 μM 2-triple TTA, 30 μM TDG) is on record?
Its value is “significantly increased”.

What about the “basal respiratory rate (OCR)” value (compared to control) of the same compound?
Its value is “decreased in a dose-dependent manner”.

And the “leak respiration after oligomycin” value (higher concentrations)?
The value was “reduced leak respiration”.
